# From ChEMBL document CHEMBL1201862, “PubChem BioAssay data set” (2004)
# Calls of active or inactive are those of the source.
# Columns and labels:
# [1] = cytotoxicity in HPDE-C7 cells, cell-based, fluorescence, HTS (AID 430); type: functional; conditions: Homo sapiens
# [2] = cytotoxicity in KRAS-transformed pancreatic duct cells, primary screen, cell-based, fluorescence, HTS (AID 431); type: functional; conditions: Homo sapiens;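 note: cell line used: HPDE-C7K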
# [3] = biological target: T1, Mannose-6-phosphate isomerase (Homo sapiens, UniProt P34949); assay: human PMI inhibitors, high substrate, primary screen, biochemical, fluorescence intensity, high mannose 6-phosphate (AID 1220)
# T1 sequence (P34949 whole entry): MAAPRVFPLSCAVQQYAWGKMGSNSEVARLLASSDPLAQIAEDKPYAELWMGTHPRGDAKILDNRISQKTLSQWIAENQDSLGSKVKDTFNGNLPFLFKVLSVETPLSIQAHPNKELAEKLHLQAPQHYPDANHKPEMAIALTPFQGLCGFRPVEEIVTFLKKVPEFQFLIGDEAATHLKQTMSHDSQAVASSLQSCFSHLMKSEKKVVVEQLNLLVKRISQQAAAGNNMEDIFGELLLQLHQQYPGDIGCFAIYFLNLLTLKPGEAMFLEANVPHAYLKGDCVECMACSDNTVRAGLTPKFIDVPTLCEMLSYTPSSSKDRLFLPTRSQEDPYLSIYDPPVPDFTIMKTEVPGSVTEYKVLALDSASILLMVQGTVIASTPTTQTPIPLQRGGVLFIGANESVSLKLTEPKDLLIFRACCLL
# [4] = inhibitors of Bluetongue virus cytopathic effect, confirmation, arbovirus, BSR cells (AID 1250); type: functional;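 note: protection from viral cytopathic effect measured as cell viability by ATP luminescence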
# [5] = biological target: Mu-type opioid receptor (Homo sapiens, UniProt P35372); type: functional, cell-based;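 note: U2OS cells with beta-arrestin recruitment to OPRM1 by beta-gal complementation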
# [6] = biological target: 5-hydroxytryptamine receptor 2A (Mus musculus, UniProt P35363); type: functional, cell-based;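 note: CHO-K1 cells with tagged receptor and beta-arrestin; agonist potency measured as compound-induced activation of the receptor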
# [7] = M. tuberculosis growth inhibition, HTS (AID 449762); type: functional
# [8] = microbe, parasite or virus in culture; type: functional; conditions: Mycobacterium tuberculosis
# [9] = biological target: Ephrin type-A receptor 4 (Mus musculus, UniProt Q03137); assay: inhibitors of EphA4 binding to KYL peptide, primary screen, biochemical, colorimetric, mouse EphA4 (AID 689); type: functional
# [10] = inhibitors of SNCA 5'UTR-driven reporter translation, confirmation, H4 neuroglioma cells, luminescence (AID 1988); type: functional, cell-based
# [11] = luciferase reporter signal reduction – luminescence, H4-C neuroglioblastoma cells, dose response (AID 2458); type: functional, cell-based;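 note: H4 neuroglioblastoma cells stably carrying a luciferase reporter gene fusion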
# [12] = inhibitors of firefly luciferase expression or activity, dose response, H4 neuroglioma cells, luminescence (AID 1990); type: functional, cell-based
# [13] = Luminescence-based dose response cell-based high throughput screening assay for cytotoxic compounds using the IEC-6 intestinal epithelial cell line. [Related pubchem assays: 1858 (Summary AID.), 1825 (Counterscreen.), 1907 (Confirmation screen.)]; type: functional
# [14] = cells; type: functional, cell-based
# [15] = cytotoxicity in HEK-293T cells, dose response, cytotoxicity control for TCR NF-kB inhibitor project, luminescence, T-cell screen hits (AID 489026); type: functional, cell-based;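 note: cells exposed to compound about 14 hours before the viability readout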
# [16] = inhibitors of SNCA 5'UTR-driven translation, confirmation, luminescence, H4 neuroglioblastoma cells, dose confirmation (AID 2454); type: functional, cell-based;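 note: H4 neuroglioblastoma cells carrying an alpha-synuclein 5'UTR luciferase reporter; potency for inhibition of the luciferase signal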
# [17] = cells
# [18] = cytotoxicity toward NIH3T3 fibroblasts, dose response, counter-screen, cell-based, ATP luminescence, mouse fibroblasts (AID 2010); type: functional;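 note: cells exposed to compound for about 90 hours before reading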
# [19] = inhibitors of intracellular T. cruzi replication, confirmation, NIH3T3 host cells, beta-gal luminescence (AID 2044); type: functional, cell-based;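 note: intracellular parasites grown in NIH/3T3 mouse fibroblasts as host cells; luminescent beta-galactosidase reporter signal from transgenic T. cruzi replicating inside host cells; inhibitors lower the luminescence signal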
# [20] = system: H9c2; assay: cells; type: functional, cell-based; conditions: Rattus norvegicus, H9c2, Myocardium;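 note: confirmatory concentration-response retest of ultra-high-throughput screening hits for modulation of myocardial damage; cell death induced by hydrogen peroxide oxidative stress; compound pretreatment for 60 min then peroxide exposure for 2 h; potency is for protecting the cells against peroxide damage rather than for killing them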
# [21] = HEp-2 cell cytotoxicity, dose response, cytotoxicity control for RSV inhibitor project, HTS (AID 2410); type: functional; conditions: human respiratory syncytial virus
# [22] = cells; remark: listed apart in the source
# [23] = biological target: Cytochrome P450 2C19 (Homo sapiens, UniProt P33261); assay: Cytochrome panel assay with activity outcomes. Panel member name: p450-cyp2c19 Compounds with AC50 equal or less than 10 uM are considered active; type: functional; conditions: read-out: AC50
# [24] = biological target: Cytochrome P450 3A4 (Homo sapiens, UniProt P08684);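 note: CYP3A4 tested as one member of a cytochrome P450 panel screen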
# [25] = system: Vero; assay: host cell cytotoxicity of antiviral hits, dose response, cytotoxicity control for West Nile virus antiviral project, secondary assay (AID 1650); type: functional; conditions: Chlorocebus sabaeus
# [26] = cytotoxicity in HEK-293T cells, dose response, cytotoxicity control for BCR NF-kB inhibitor project, luminescence, B-cell screen hits (AID 489021); type: functional, cell-based;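 note: HEK-293T cells carrying an NF-kB luciferase reporter; cells exposed to compound for about 14 hours before viability readout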
# [27] = Luminescence Cell-Based Dose Response HTS to Identify Inhibitors of 5'UTR Stem-Loop Driven Prion Protein mRNA Translation in H4 Neuroglioblastoma Cells. [Related pubchem assays: 1827 (Project Summary), 1813 (Primary HTS)]; type: functional
# [28] = biological target: T2, Carboxy-terminal domain RNA polymerase II polypeptide A small phosphatase 1 (Homo sapiens, UniProt Q9GZU7); assay: inhibitors of CTDSP1, concentration-response testing, biochemical assay, absorbance-based, actives from ultra-high-throughput screening (AID 540297); type: functional
# T2 sequence (Q9GZU7 whole entry): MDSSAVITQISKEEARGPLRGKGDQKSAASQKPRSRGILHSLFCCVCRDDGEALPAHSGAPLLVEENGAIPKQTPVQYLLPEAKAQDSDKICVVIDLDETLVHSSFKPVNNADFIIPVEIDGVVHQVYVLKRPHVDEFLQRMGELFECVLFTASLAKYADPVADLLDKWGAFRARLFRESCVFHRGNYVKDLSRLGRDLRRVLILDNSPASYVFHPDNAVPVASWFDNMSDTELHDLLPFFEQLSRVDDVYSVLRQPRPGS
# [29] = biological target: Genome polyprotein (Hepatitis C virus, UniProt Q2Q167); assay: HCV core protein dimerization inhibitors, dose response, biochemical, TR-FRET (AID 2159); design: species or system Hepacivirus hominis;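 note: blocks dimerization of HCV core protein measured by TR-FRET between tagged core106 pairs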
# [30] = biological target: Induced myeloid leukemia cell differentiation protein Mcl-1 (Homo sapiens, UniProt Q07820); type: functional
# [31] = biological target: T3, Alkaline phosphatase, tissue-nonspecific isozyme (Homo sapiens, UniProt P05186); assay: TNAP enzyme activators, dose response, selectivity assay for human IAP activator project, biochemical, TNAP isozyme, human IAP uHTS hits (AID 488886); type: functional;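 note: potency of compounds raising TNAP activity as a selectivity check on IAP activators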
# T3 sequence (P05186 whole entry): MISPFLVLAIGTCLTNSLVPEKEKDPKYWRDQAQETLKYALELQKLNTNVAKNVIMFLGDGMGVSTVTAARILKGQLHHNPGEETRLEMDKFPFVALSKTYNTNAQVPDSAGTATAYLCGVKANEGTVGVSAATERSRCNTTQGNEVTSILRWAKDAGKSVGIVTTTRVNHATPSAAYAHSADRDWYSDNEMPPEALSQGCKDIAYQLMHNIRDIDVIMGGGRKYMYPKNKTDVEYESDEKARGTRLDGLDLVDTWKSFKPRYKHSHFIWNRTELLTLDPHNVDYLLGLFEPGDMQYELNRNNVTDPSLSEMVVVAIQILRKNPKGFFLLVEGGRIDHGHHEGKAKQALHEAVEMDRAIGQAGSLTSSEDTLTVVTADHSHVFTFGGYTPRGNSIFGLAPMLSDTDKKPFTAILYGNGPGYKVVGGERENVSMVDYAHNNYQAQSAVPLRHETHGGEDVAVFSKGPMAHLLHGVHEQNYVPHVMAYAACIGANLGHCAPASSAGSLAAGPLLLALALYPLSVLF
# [32] = biological target: T1, Mannose-6-phosphate isomerase; assay: inhibitors of human PMI, primary screen, biochemical, fluorescence intensity, coupled assay (AID 1209)
# [33] = biological target: FAD-linked sulfhydryl oxidase ALR (Homo sapiens, UniProt P55789); assay: inhibitors of human ALR sulfhydryl oxidase, dose response, biochemical, H2O2 detection, luminescence, cherry-pick (AID 493248)
# [34] = biological target: Intestinal-type alkaline phosphatase (Mus musculus, UniProt P24822); assay: PubChem AID 488874; type: functional
# [35] = biological target: T4, Rac GTPase-activating protein 1 (Homo sapiens, UniProt Q9H0H5); assay: MgcRacGAP GTPase-activating activity inhibitors, confirmation, biochemical, ADP Hunter fluorescence, primary and confirmatory (AID 624330); type: functional
# T4 sequence (Q9H0H5 whole entry): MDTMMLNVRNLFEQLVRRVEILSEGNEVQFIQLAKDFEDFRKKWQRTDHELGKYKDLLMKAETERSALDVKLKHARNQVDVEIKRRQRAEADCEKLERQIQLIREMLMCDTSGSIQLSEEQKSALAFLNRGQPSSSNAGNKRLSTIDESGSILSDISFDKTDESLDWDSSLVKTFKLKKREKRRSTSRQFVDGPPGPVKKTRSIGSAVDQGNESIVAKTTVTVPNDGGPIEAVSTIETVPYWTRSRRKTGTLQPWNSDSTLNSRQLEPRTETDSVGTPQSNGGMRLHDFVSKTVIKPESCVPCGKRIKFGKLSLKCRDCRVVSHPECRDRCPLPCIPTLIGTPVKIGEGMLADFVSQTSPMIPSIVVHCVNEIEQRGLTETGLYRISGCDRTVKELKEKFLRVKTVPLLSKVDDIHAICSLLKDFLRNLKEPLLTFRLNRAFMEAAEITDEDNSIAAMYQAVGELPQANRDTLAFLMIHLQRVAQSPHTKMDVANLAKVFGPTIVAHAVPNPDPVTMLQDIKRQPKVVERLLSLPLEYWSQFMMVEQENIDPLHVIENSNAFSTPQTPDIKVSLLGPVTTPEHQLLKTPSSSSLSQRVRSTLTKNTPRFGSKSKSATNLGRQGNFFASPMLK
# [36] = system: INS1; assay: beta cell apoptosis inhibitors, cytokine rescue, dose response, luminescence, retest (AID 449756); type: functional, cell-based; conditions: Rattus norvegicus;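 note: cell death triggered by IL-1 beta plus TNF-alpha plus IFN-gamma mixture; protective hits raise ATP signal compared with cytokine alone wells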
# [37] = cells; type: functional, cell-based; remark: listed apart in the source
# [38] = cells; type: functional, cell-based; remark: listed apart in the source
# [39] = biological target: T5, Intestinal-type alkaline phosphatase (Homo sapiens, UniProt P09923); assay: human IAP activators, dose response, biochemical, luminescent, uHTS hits, set 2 (AID 488817); type: functional;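 note: potency of activators that raise enzyme activity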
# [40] = biological target: T5, Intestinal-type alkaline phosphatase; assay: human intestinal alkaline phosphatase activators, dose response, biochemical, luminescence, uHTS hits (AID 463120); type: functional
# Sequence of Genome polyprotein (Q2Q167 whole entry): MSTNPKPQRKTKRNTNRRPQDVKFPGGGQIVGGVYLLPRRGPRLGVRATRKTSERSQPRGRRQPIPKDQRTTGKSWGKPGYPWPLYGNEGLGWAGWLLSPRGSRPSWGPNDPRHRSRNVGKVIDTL
# T5 sequence (P09923 whole entry): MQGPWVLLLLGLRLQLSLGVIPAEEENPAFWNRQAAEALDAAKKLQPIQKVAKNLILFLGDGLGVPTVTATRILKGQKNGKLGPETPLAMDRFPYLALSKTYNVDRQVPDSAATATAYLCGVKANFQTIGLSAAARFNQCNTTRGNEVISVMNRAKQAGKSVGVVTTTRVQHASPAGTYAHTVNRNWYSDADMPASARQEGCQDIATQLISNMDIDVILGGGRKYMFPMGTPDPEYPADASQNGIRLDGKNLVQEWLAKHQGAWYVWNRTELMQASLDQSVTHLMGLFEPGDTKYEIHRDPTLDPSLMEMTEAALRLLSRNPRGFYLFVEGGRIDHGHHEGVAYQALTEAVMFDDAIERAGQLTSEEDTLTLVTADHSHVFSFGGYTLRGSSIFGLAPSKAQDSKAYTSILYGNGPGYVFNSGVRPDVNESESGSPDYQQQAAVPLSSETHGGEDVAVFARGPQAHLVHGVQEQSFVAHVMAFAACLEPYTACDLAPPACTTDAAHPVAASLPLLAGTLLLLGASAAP
# Sequence of Cytochrome P450 3A4 (P08684 whole entry): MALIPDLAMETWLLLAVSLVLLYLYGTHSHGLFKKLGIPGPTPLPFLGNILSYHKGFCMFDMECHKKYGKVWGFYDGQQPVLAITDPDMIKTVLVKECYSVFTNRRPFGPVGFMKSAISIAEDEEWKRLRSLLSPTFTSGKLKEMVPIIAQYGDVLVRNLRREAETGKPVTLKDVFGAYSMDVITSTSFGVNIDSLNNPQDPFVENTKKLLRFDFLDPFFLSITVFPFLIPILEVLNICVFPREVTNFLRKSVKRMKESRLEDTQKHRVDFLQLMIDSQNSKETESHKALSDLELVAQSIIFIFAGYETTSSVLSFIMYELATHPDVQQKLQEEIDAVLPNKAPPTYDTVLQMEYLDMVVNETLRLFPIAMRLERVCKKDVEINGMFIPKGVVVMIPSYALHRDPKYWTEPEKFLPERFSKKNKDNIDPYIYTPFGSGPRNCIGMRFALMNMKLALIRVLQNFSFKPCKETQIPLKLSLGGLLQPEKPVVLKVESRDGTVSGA
# Sequence of FAD-linked sulfhydryl oxidase ALR (P55789 whole entry): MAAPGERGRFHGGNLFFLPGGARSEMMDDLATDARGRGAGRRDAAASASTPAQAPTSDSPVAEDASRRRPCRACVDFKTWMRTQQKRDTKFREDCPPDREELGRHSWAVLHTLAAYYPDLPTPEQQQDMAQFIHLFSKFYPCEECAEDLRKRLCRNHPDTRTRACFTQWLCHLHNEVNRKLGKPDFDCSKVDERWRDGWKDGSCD
# Sequence of Induced myeloid leukemia cell differentiation protein Mcl-1 (Q07820 whole entry): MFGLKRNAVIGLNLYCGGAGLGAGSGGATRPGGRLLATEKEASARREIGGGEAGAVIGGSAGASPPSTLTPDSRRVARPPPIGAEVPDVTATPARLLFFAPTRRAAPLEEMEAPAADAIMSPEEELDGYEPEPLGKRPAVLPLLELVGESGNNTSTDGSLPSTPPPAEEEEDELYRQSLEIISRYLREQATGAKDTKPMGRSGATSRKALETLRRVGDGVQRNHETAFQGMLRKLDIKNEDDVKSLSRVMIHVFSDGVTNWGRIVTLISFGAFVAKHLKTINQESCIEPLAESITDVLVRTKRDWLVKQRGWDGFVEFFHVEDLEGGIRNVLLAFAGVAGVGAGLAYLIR
# Sequence of 5-hydroxytryptamine receptor 2A (P35363 whole entry): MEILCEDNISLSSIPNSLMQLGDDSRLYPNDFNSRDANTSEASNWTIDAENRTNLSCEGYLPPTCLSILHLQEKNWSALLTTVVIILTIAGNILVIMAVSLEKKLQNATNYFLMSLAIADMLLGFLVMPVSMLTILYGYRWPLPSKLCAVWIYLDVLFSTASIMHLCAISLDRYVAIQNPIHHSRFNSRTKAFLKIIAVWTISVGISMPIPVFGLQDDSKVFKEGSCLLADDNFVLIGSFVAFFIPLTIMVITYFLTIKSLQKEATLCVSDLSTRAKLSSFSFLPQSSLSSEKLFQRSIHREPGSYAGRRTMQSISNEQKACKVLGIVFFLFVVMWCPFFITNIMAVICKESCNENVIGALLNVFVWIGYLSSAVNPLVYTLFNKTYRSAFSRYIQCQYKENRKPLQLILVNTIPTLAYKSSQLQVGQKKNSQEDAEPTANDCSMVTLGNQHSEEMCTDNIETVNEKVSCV
# Sequence of Ephrin type-A receptor 4 (Q03137 whole entry): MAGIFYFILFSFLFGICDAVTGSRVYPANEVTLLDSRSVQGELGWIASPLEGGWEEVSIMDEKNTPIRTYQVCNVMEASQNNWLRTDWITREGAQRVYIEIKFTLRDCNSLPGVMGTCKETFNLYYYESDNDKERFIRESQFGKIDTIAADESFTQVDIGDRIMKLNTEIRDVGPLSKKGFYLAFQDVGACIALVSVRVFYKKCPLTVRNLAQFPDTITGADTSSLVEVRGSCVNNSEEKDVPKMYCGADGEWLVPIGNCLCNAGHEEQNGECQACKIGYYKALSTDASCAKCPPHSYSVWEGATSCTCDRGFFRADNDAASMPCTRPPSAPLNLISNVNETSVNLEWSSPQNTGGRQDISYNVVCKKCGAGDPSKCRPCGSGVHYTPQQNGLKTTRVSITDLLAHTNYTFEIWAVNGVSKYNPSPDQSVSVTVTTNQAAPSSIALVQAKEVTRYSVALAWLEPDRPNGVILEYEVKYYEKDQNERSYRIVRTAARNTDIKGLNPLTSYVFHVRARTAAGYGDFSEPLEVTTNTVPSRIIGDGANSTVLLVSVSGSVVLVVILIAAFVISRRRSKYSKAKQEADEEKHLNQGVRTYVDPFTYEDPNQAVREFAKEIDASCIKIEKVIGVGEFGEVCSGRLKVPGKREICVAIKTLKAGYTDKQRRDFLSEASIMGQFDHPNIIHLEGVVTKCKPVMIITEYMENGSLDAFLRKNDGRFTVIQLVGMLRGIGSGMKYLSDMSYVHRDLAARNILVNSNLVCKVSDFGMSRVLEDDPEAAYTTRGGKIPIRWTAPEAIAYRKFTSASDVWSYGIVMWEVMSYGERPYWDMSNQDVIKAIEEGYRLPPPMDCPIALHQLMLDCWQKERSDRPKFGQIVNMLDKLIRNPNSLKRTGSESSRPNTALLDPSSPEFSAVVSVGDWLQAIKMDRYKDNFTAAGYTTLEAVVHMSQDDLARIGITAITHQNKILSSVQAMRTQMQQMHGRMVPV
# Sequence of Intestinal-type alkaline phosphatase (Mus musculus, UniProt P24822) (P24822 whole entry): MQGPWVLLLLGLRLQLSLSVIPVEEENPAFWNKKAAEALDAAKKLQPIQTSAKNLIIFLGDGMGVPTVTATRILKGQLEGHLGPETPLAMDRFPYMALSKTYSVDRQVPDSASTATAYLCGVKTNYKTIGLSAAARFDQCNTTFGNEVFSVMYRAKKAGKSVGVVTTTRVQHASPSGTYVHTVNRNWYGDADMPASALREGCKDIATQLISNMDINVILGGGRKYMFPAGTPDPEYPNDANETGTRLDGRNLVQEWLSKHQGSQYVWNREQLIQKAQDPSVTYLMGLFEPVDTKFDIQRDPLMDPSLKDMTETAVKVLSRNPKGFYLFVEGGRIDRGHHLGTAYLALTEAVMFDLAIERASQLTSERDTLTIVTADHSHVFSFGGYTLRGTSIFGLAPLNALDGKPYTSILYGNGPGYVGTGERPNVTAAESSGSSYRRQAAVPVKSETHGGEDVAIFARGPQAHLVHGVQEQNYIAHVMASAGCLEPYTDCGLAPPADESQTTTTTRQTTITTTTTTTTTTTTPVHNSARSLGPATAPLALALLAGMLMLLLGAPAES
# Sequence of Mu-type opioid receptor (P35372 whole entry): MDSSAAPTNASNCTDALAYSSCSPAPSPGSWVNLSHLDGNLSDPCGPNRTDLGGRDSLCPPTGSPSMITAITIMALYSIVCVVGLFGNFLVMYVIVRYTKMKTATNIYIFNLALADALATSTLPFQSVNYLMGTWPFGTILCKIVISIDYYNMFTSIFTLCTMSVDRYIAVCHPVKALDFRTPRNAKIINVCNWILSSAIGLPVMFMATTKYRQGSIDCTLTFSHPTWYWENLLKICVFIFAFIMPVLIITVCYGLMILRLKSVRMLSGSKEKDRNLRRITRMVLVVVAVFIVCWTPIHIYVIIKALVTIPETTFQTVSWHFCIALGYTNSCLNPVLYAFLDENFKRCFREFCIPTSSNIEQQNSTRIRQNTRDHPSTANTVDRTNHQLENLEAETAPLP
# Sequence of Cytochrome P450 2C19 (P33261 whole entry): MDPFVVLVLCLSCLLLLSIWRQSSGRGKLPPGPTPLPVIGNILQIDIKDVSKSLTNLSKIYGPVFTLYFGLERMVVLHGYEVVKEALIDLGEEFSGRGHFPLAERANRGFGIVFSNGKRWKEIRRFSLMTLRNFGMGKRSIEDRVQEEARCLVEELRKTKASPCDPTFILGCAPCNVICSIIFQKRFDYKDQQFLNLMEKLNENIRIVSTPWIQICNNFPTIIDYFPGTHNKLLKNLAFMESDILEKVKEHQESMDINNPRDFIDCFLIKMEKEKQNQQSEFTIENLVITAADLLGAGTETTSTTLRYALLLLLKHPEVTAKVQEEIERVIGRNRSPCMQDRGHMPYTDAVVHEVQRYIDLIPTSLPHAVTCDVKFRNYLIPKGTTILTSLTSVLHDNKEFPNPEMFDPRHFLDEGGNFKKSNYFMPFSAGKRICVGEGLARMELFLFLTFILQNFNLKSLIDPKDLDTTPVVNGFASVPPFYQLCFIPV
compound,measurement,setting,value
O=C(CCN1CCN(c2ccccc2F)CC1)c1ccc(Br)cc1,EC50,[1],7.29 µM (active)
same,EC50,[2],8.84 µM (active)
same,IC50,[3],38.2 µM (active)
COCCn1c(-c2ccccc2)cnc1SCC(=O)Nc1cccc2ccccc12,IC50,[4],27.4 µM (active)
CC(C)C[C@H]1C(=O)N2CCC[C@H]2[C@]2(O)O[C@](NC(=O)C3C=C4c5cccc6[nH]c(Br)c(c56)C[C@H]4N(C)C3)(C(C)C)C(=O)N12 (stereo partly drawn),EC50,[5],92.5 µM (inactive)
same,EC50,[6],0.0038 µM (active)
same,IC50,[7],> 100 µM (active)
same,CC50,[8],> 40 µM (active)
CCc1cc(C(=O)O)c(NC(=O)c2cc(OC)c(OC)c(OC)c2)s1,IC50,[4],29.2 µM (active)
Nc1ccc(Br)c2c1C(=O)c1ccccc1C2=O,IC50,[9],13.5 µM (active)
CCCCCC(=O)N[C@@H](c1ccccc1)[C@@H](O)C(=O)O[C@H]1C[C@@]2(O)[C@@H](OC(=O)c3ccccc3)C3[C@](C)(C(=O)[C@H](OC(C)=O)C(=C1C)C2(C)C)[C@@H](O)C[C@H]1OC[C@@]31OC(C)=O (stereo partly drawn),EC50,[10],< 0.1 µM (active)
same,EC50,[11],0.229 µM (active)
same,EC50,[12],< 0.1 µM (active)
same,IC50,[13],0.0618 µM (active)
same,EC50,[14],0.253 µM (active)
same,IC50,[15],> 80 µM (inactive)
same,EC50,[16],0.402 µM (active)
CN1CCN(CC(C)(C)NS(=O)(=O)c2ccc(Cl)cc2)CC1,EC50,[17],0.203 µM (active)
same,EC50,[18],> 60 µM (not active)
same,EC50,[19],< 0.1 µM (active)
COc1ccccc1NC(=O)COc1cccc2c1CCNC2=O,IC50,[20],8.7 µM (active)
same,CC50,[21],39.1 µM (active)
same,IC50,[22],28.8 µM (active)
CN(C)CCCCCN(C)Cc1cc2ccccc2o1,EC50,[17],0.025 µM (active)
same,EC50,[18],16.4 µM (active)
same,EC50,[19],< 0.1 µM (active)
Cc1ccc(-c2cc(C(F)F)n3ncc(C(=O)Nc4c(C)nn(Cc5c(Cl)cccc5Cl)c4C)c3n2)cc1,AC50,[23],7.94 µM (inconclusive)
same,AC50,[24],inconclusive
same,CC50,[25],> 100 µM (active)
CCOc1ccc(-c2cc(CCCC(=O)NCc3ccco3)no2)cc1,IC50,[26],> 80 µM (inactive)
same,EC50,[10],< 0.1 µM (active)
same,EC50,[11],1.22 µM (active)
same,EC50,[12],14.5 µM (active)
same,EC50,[14],2.78 µM (active)
same,EC50,[16],1.87 µM (active)
same,EC50,[27],17.4 µM (active)
Cc1cc(C)n2c(SC/C(O)=C(\C#N)c3nc4ccccc4[nH]3)nnc2n1,IC50,[28],5.01 µM (active)
same,IC50,[29],> 49.8 µM (not active)
same,IC50,[30],1.15 µM (active)
CCC(C)[C@H](NC(=O)OC(C)(C)C)C(=O)N/N=C/c1ccc2cc(OC)ccc2n1 (stereo partly drawn),CC50,[21],36.2 µM (active)
same,IC50,[22],39 µM (active)
Cc1cc(C(=O)N/N=C2\CC(=O)c3ccccc32)c(C)n1-c1ccc(F)cc1,IC50,[29],> 49.8 µM (not active)
CCn1c(C)nc2cc(C(=O)N/N=C/c3cccc(O)c3O)ccc21,EC50,[31],11 µM (active)
same,IC50,[32],> 50 µM (not active)
same,AC50,[33],3.82 µM (active)
same,IC50,[34],44 µM (active)
same,IC50,[35],119 µM (active)
same,AC50,[36],2.79 µM (active)
same,EC50,[37],10.9 µM (active)
same,EC50,[38],> 350 µM (not active)
same,EC50,[39],9.71 µM (active)
same,EC50,[40],6.34 µM (active)
same,IC50,[3],> 50 µM (not active)
